{"source": "patent US20230285336A1", "about": "“COMPOSITION FOR PREVENTION AND TREATMENT OF SKIN DISEASES CAUSED BY GENETIC MUTATION COMPRISING FERULIC ACID AND ANALOGS THEREOF” (UNIVERSITY-INDUSTRY COOPERATION GROUP OF KYUNG HEE …, priority 2019, published 2023)", "key": {"beta-catenin protein [1]": {"test_system": "beta-catenin protein", "assay": "Beta-catenin protein expression in skin dermal stem cells, immunofluorescence staining and Western blotting", "type": "cell-based, mouse", "settings": "skin dermal stem cells (FIGS. 9 and 10)", "procedure": "(§1) In order to confirm whether ferulic acid regulates beta-catenin protein, an experiment was carried out to confirm the expression levels of beta-catenin protein and c-myc protein in epidermal cells and dermal cells of the skin.\n(§2) The expression levels of beta-catenin protein and c-myc protein after treating skin dermal stem cells with ferulic acid, and the expression levels of beta-catenin protein and c-myc protein after treating skin dermal stem cells with ferulic acid together with LiCl, which is a beta-catenin protein inducer, were confirmed using immunofluorescence staining and Western blotting.\n(§3) First, for immunofluorescence staining, the cell fluorescence staining method of Example 1 was referred to. At this time, beta-catenin (anti-beta-catenin extracted from mouse, 1:200, Invitrogen, CA, USA) was used instead of keratin 6A as a primary antibody, and Alexa 647 (anti-mouse IgG derived from goat, 1:1000, Invitrogen, CA, USA) was used instead of Alexa 488 (anti-rabbit IgG extracted from donkey, 1:1000, Invitrogen, CA, USA) as a secondary antibody.\n(§4) In addition, for Western blotting, the Western blotting method of Example 1 was referred to. In this case, beta-catenin (anti-beta catenin extracted from mouse, 1:200, Invitrogen, CA, USA) was used instead of keratin 6A as a primary antibody."}, "keratin 6A protein [2]": {"test_system": "keratin 6A protein", "assay": "Keratin 6A protein expression in keratin 5 knock-down kera308 cells, Western blotting", "type": "cell-based, mouse", "settings": "100 μM, 24 hours, compared to not treated (FIG. 6)", "procedure": "First, in order to confirm the expression levels of two proteins, keratin 6A and beta-catenin, skin tissue was collected and protein was extracted using a dissolution buffer (pH 7.4, 50 mM, Tris-HCL, 150 mM NaCL, 1 mM EDTA, 1 mM EGTA, 10 mg/mL aprotinin, 10 mg/mL leupeptin, 5 mM phenylmethylsulfonyl fluoride and 1 mM DTT). The extracted protein was quantified using a Bradford reaction solution (Bio-Rad, CA, USA), and 20 μL of the protein was electrophoresed by 10% SDS-PAGE, and transferred to a nitrocellulose membrane (Merck, MA, USA). The membrane was reacted with primary antibodies keratin 6A (rabbit anti-keratin 6A, 1:200, Covans, NJ, USA) and β-actin (anti-β-actin extracted from mouse, 1:1000, Santa Cruz, TX, USA), and washed three times with TBS-T (Tris Buffered Saline with Tween 20) for 10 minutes, and then the membrane was reacted with a secondary antibody (Santa Cruz, TX, USA) for 1 hour. […]\nThe cells were precultured for 15 hours after attaching 1×10^6 cells/well of kera308 cells, and cultured for 24 hours after being treated with 100 μM ferulic acid. The harvested cells were centrifuged at 13,000 rpm for 5 minutes to take the supernatant, and then the protein concentration was quantified using Bradford assay (BioRed). […]"}, "beta-catenin protein [3]": {"test_system": "beta-catenin protein", "assay": "Beta-catenin protein expression in skin epidermal stem cells, immunofluorescence staining and Western blotting", "type": "cell-based, mouse", "settings": "skin epidermal stem cells (FIGS. 7 and 8)", "procedure": "as §1\nas §2, with “epidermal” for “dermal”\nas §3, §4"}, "keratin 6A protein [4]": {"test_system": "keratin 6A protein", "assay": "Keratin 6A protein expression in skin tissue of an adult mouse, Western blotting and immunofluorescence staining", "type": "in vivo", "procedure": "(§5) In order to confirm whether ferulic acid induces the expression of keratin 6A protein from the skin tissue of a mouse, the cross-sections of the cultured skin tissue and the skin tissue of an adult mouse were treated with ferulic acid to confirm the expression level of keratin 6A protein using Western blotting and immunofluorescence staining.\nFor tissue fluorescence staining, after removing paraffin from the paraffin-coated skin tissue, the tissue was washed three times with a washing buffer (0.1 M, PBS), and reacted with a solution containing hydrogen peroxide (0.1 M PBS, 0.2% H2O2) for 30 minutes to eliminate the activity of endogenous peroxidase. […] Then, after washing three times with a washing buffer (0.1 M, PBS), fluorescence photos were taken using a FluoView FV1000 confocal microscope (Olympus, Tokyo, Japan). […]\nFirst, in order to confirm the expression levels of two proteins, keratin 6A and beta-catenin, skin tissue was collected and protein was extracted using a dissolution buffer (pH 7.4, 50 mM, Tris-HCL, 150 mM NaCL, 1 mM EDTA, 1 mM EGTA, 10 mg/mL aprotinin, 10 mg/mL leupeptin, 5 mM phenylmethylsulfonyl fluoride and 1 mM DTT). The extracted protein was quantified using a Bradford reaction solution (Bio-Rad, CA, USA), and 20 μL of the protein was electrophoresed by 10% SDS-PAGE, and transferred to a nitrocellulose membrane (Merck, MA, USA). […]"}, "c-myc protein [5]": {"test_system": "c-myc protein", "assay": "c-myc protein expression in skin dermal stem cells", "type": "cell-based, mouse", "settings": "skin dermal stem cells (FIGS. 9 and 10)", "procedure": "as §1, §2, §3, §4"}, "keratin 6A protein [6]": {"test_system": "keratin 6A protein", "assay": "Keratin 6A protein expression in cultured skin tissue of mouse, immunofluorescence staining", "type": "cell-based", "settings": "cultured 12 days, compared to control group not treated (FIG. 1)", "procedure": "as §5\nFirst, after peeling off the skin of a mouse within one day of age, a circular skin piece was spread on a 24-well plate using a 4 mm punch (Kai industries). The cell medium was carefully added with the growth factor Cnt-57 according to the method of CELLnTEC, and the medium was replaced once every two days. […]\nSpecifically, for cell fluorescence staining, 500 μl of a 4% paraformaldehyde solution (solvent, PBS) was reacted for 20 minutes, and then washed three times with a washing buffer (0.1 M, PBS). […]\nFor tissue fluorescence staining, after removing paraffin from the paraffin-coated skin tissue, the tissue was washed three times with a washing buffer (0.1 M, PBS), and reacted with a solution containing hydrogen peroxide (0.1 M PBS, 0.2% H2O2) for 30 minutes to eliminate the activity of endogenous peroxidase. […] Then, after washing three times with a washing buffer (0.1 M, PBS), fluorescence photos were taken using a FluoView FV1000 confocal microscope (Olympus, Tokyo, Japan)."}, "c-myc protein [7]": {"test_system": "c-myc protein", "assay": "c-myc protein expression in skin epidermal stem cells", "type": "cell-based, mouse", "settings": "skin epidermal stem cells (FIGS. 7 and 8)", "procedure": "as §1\nas §2, with “epidermal” for “dermal”\nas §3, §4"}}}
{"compound": "COc1cc(/C=C/C(=O)O)ccc1O", "note": "[ferulic acid]", "values": [{"measurement": "amount of beta-catenin protein", "setting": "beta-catenin protein [1]", "value": "increased"}, {"measurement": "expression level of keratin 6A protein", "setting": "keratin 6A protein [2]", "value": "increased significantly"}, {"measurement": "expression of beta-catenin protein", "setting": "beta-catenin protein [3]", "value": "suppressed"}, {"measurement": "expression level of keratin 6A protein", "setting": "keratin 6A protein [4]; skin tissue of an adult mouse treated for 3 days and 7 days (FIGS. 2 and 3)", "value": "increased significantly"}, {"measurement": "expression level of keratin 6A protein", "setting": "keratin 6A protein [4]; skin tissue of an adult mouse, 3 days after treating (FIGS. 2 and 3)", "value": "particularly high"}, {"measurement": "amount of c-myc protein", "setting": "c-myc protein [5]", "value": "increased"}, {"measurement": "expression level of keratin 6A protein", "setting": "keratin 6A protein [6]", "value": "increased"}, {"measurement": "expression of c-myc protein", "setting": "c-myc protein [7]", "value": "suppressed"}]}
